One may read the inhibition as the relative decrease from the control value, in per cent. Usually LD50 stands for the dose at which mortality reaches 50%. Low readings indicate greater toxicity, high ones lower toxicity.

This note sets out measurements from US4661603A, “Imidazole derivatives” (Yoshitomi Pharmaceutical Industries, Ltd., priority 1982, dated 1987).

One series concerns platelet aggregation. The series can be described thus: Inhibitory activities on platelet aggregation (ex vivo, arachidonic acid, after oral administration to rabbits). It counts as in vivo, rabbit. The note with it: Oryctolagus cuniculus, 1 h, blood one hour after administration, read-out: Inhibitory activities on platelet aggregation, Rate of inhibition. The method, then:
According to the method described in Journal of Physiology, vol. 162, page 67 (1962), the inhibitory activities of compounds of this invention on platelet aggregation were measured from the changes in transmittance with an aggregometer (Rikadenki Electronics Co., Japan).
Before and one hour after the oral administration of test compounds to rabbits, blood was collected. The blood was mixed with sodium citrate in the ratio of 9:1 by volume. Platelet rich plasma (PRP) was prepared by centrifuging the citrated blood at 1000 rpm for 10 minutes, and platelet poor plasma (PPP), by centrifuging the remaining citrated blood at 3000 rpm for 10 minutes.
The transmittance of aggregometer was adjusted to 0 and 100% with PRP and PPP, respectively. To 0.3 ml of a PRP sample was added 0.003 ml of arachidonic acid solution. The changes in transmittance of the mixture were measured using the aggregometer with stirring at 1200 rpm.
Inhibitory activities on platelet aggregation were assessed as % inhibition by comparing the rate of aggregation of treated PRP with that of blood collected before the oral administration of test compounds.

The next series deals with T1, thromboxane synthetase (Homo sapiens, UniProt P24557).
T1 construct: incubating human platelet microsomes; from tissue; host or cells: human platelet microsomes
T1 sequence (P24557 1-533): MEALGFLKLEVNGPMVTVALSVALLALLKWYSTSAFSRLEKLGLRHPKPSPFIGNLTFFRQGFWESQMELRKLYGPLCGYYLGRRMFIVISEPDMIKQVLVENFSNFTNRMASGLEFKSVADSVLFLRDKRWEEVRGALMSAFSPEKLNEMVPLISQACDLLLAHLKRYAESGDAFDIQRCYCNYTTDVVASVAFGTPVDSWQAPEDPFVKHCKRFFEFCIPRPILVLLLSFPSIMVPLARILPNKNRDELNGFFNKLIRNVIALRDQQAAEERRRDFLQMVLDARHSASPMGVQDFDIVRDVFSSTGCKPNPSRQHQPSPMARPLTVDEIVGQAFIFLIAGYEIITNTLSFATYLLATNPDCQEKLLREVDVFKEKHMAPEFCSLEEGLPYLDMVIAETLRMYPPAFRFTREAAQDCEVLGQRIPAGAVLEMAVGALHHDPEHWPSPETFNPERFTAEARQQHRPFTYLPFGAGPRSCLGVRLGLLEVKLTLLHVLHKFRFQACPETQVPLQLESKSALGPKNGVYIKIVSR
Nature of the series: Inhibitory effect on thromboxane synthetase. It counts as biochemical. The note with it: in vitro; human platelet microsomes; 4.3 μM 14C-arachidonic acid, 25° C., 5 minutes; read-out: Inhibitory effect on thromboxane synthetase (50% inhibitory molar concentration). As for the experimental part:
(§1) Effects of test compounds on thromboxane synthetase, cyclo-oxygenase and prostacyclin synthetase were examined in vitro by the following methods:
According to the method described in Journal of Biological Chemistry, vol. 252, page 5871 (1977), thromboxane was produced by incubating human platelet microsomes with 4.3 μM ^14 C-arachidonic acid at 25° C. for 5 minutes. Since thromboxane A2 is extremely short-lived, thromboxane B2, which is a stable degradation product of thromboxane A2, was assayed. The incubation mixture was extracted with ethyl acetate, and thromboxane B2 was separated on a thin-layer chromatogram. The zone of thromboxane B2 on a silica gel plate was detected with a radiochromatoscanner and scraped off. The radioactivities were determined with a liquid scintilation counter.
The inhibitory activities of test compounds on thromboxane synthetase were assessed by comparing the contents of thromboxane formed in the presence and the absence of test compounds.

In a further series the target is T2, cyclo-oxygenase (Bos taurus, UniProt O62664).
T2 construct: bovine seminal vesicle microsomes; from tissue; host or cells: bovine seminal vesicle microsomes
T2 sequence (O62664 25-600): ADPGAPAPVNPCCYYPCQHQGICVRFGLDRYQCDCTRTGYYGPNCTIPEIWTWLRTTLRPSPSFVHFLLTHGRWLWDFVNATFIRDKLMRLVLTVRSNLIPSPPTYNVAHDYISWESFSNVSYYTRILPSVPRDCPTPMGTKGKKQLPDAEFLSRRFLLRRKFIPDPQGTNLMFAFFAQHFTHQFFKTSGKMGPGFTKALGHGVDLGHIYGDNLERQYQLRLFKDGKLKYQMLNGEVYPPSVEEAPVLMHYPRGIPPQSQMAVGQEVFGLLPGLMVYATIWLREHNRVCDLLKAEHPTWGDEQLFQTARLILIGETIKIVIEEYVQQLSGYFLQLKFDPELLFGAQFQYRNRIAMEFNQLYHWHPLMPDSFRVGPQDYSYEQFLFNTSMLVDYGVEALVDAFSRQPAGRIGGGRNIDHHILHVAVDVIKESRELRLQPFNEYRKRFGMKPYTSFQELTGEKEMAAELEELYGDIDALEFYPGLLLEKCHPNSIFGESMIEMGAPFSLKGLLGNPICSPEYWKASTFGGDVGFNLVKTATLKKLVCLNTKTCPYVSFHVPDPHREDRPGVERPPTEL
Nature of the series: Inhibitory effect on cyclo-oxygenase. The class given is biochemical. Conditions: in vitro; bovine seminal vesicle microsomes; 104.3 μM 14C-arachidonic acid, 25° C., 10 minutes; read-out: Inhibitory effect on cyclo-oxygenase (50% inhibitory molar concentration). The method, then: as §1
According to the method described in Proceedings of National Academy of Sciences, U.S.A., vol. 71, page 3645 (1974), bovine seminal vesicle microsomes were incubated with 104.3 μM ^14 C-arachidonic acid at 25° C. for 10 minutes. Prostaglandin E2 thus formed was separated and assayed using the same method as (a).
The inhibitory activities of test compounds on cyclo-oxygenase were assessed by comparing the contents of prostaglandin E2 formed in the presence and absence of test compounds.

A further series concerns the target T3, prostacyclin synthetase (Rattus norvegicus, UniProt Q62969).
T3 construct: incubating the rat arota ring; from tissue; host or cells: rat aorta ring
T3 sequence (Q62969 1-501): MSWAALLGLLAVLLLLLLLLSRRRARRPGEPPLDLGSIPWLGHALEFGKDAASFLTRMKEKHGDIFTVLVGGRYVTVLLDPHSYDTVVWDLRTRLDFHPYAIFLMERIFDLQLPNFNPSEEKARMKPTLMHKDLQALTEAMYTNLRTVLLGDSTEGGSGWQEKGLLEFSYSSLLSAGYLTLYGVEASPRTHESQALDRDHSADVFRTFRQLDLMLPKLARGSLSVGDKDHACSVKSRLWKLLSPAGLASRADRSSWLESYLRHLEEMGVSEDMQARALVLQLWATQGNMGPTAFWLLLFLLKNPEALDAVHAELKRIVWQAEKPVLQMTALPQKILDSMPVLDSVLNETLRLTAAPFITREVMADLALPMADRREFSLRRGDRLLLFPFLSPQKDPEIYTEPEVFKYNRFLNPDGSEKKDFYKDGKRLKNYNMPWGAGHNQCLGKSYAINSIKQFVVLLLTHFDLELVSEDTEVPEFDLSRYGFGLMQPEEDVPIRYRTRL
The series can be described thus: Inhibitory effect on prostacyclin synthetase. The class given is biochemical. The note with it: in vitro; rat aorta ring; 1.7 μM 14C-arachidonic acid, 37° C., 20 minutes; read-out: Inhibitory effect on prostacyclin synthetase (50% inhibitory molar concentration). As for the experimental part: as §1
According to the method described in Journal of Pharmacology and Experimental Therapeutics, vol. 215, page 240 (1980), prostacyclin was formed by incubating the rat arota ring with 1.7 μM ^14 C-arachidonic acid at 37° C. for 20 minutes. Since prostacyclin is extremely short-lived, 6-keto-prostaglandin F1α, which is a stable degradation product of prostacyclin, was separated and assayed using the same method as (a).
The inhibitory activities of test compounds on prostacyclin synthetase were assessed by comparing the contents of 6-keto-prostaglandin F1α formed in the presence and the absence of test compounds.

Series [1] is described as follows: Acute toxicity (oral LD50). The note with it: rat, in vivo, p.o., six male Wistar rats. As for the experimental part: According to the method described in Journal of Pharmacological and Experimental Therapeutics, vol. 96, page 99 (1949), the test compounds were orally administered to a group consisting of six male Wistar rats. The 50% lethal doses (LD50, mg/kg) were determined.

SMILES strings stand for the structures. Where only a bound is given, the exact number is not on record here.

In the case of `Cc1ccc(-n2ccnc2)cc1C(O)c1c(C)cc(C(=O)O)cc1C` (stereo not drawn) [α-(2,6-dimethyl-4-carboxyphenyl)-2-methyl-5-(1-imidazolyl)benzenemethanol], the inhibition at 10 mg/kg with platelet aggregation was determined as 100%. Also, the IC50 on thromboxane synthetase is 0.022 µM; at cyclo-oxygenase it was > 100 µM; at prostacyclin synthetase it was > 100 µM. The LD50 in series [1] was > 1000 mg/kg.
Turning to `CCOC(=O)c1cc(C)c(C(O)c2cc(-n3ccnc3)ccc2C)c(C)c1` (stereo not drawn) [α-(2,6-dimethyl-4-ethoxycarbonylphenyl)-2-methyl-5-(1-imidazolyl)benzenemethanol], the inhibition at 10 mg/kg in the series with platelet aggregation is 100%. The IC50 on cyclo-oxygenase and at prostacyclin synthetase was > 100 µM in each case. The LD50 in series [1] was > 1000 mg/kg.
With `Cc1cc(C)c(C(O)c2cc(-n3ccnc3)ccc2Cl)c(C)c1` (stereo not drawn) [α-(2,4,6-trimethylphenyl)-2-chloro-5-(1-imidazolyl) benzenemethanol], the inhibition at 10 mg/kg in the series on platelet aggregation stood at 71%. For the same compound, the IC50 on thromboxane synthetase was 2.3 µM; at cyclo-oxygenase, > 1000 µM; on prostacyclin synthetase, > 1000 µM. Besides, in series [1], the LD50 was > 1000 mg/kg.
For the compound `Cc1cc(C)c(C(O)c2ccc(C)c(-n3ccnc3)c2)c(C)c1` (stereo not drawn) [α-(2,4,6-Trimethylphenyl)-4-methyl-3-(1-imidazolyl)benzenemethanol], the inhibition at 10 mg/kg in the series on platelet aggregation was 88%. In series [1], the median lethal dose (LD50) is > 1000 mg/kg.
On to `Cc1cc(C)c(C(O)c2ccc(-n3ccnc3)c(Cl)c2)c(C)c1` (stereo not drawn) [α-(2,4,6-trimethylphenyl)-3-chloro-4-(1-imidazolyl)benzenemethanol], for which the inhibition at 10 mg/kg in the series on platelet aggregation was found to be 80%. In addition, the IC50 was 0.18 µM at thromboxane synthetase, > 100 µM at cyclo-oxygenase and > 100 µM at prostacyclin synthetase. In series [1], the LD50 was > 1000 mg/kg.
For `Cc1cc(C)c(C(O)c2cc(-n3ccnc3)ccc2C)c(C)c1` (stereo not drawn) [α-(2,4,6-trimethylphenyl)-2-methyl-5-(1-imidazolyl)benzenemethanol], the inhibition at 10 mg/kg in the series with platelet aggregation worked out at 100%. Also, the IC50 on thromboxane synthetase stood at 0.82 µM. Further, the LD50 in series [1] was > 1000 mg/kg.
In the case of `Cc1cc(C(=O)O)cc(C)c1C(O)c1cc(-n2ccnc2)ccc1Cl` (stereo not drawn) [α-(2,6-dimethyl-4-carboxyphenyl)-2-chloro-5-(1-imidazolyl)benzenemethanol], the inhibition at 10 mg/kg with platelet aggregation came out at 100%. Further, the IC50 at thromboxane synthetase was 0.052 µM; at cyclo-oxygenase, > 100 µM; on prostacyclin synthetase, > 100 µM. The LD50 in series [1] was > 1000 mg/kg.
On to `Cc1cc(C)c(C(O)c2cccc(-n3ccnc3)c2)c(C)c1` (stereo not drawn) [α-(2,4,6-trimethylphenyl)-3-(1-imidazolyl)benzenemethanol], for which the inhibition at 10 mg/kg with platelet aggregation turned out to be 100%. Further, the values for the IC50 at thromboxane synthetase, at cyclo-oxygenase and on prostacyclin synthetase were 0.34 µM, > 1000 µM and > 100 µM, respectively. Further, the LD50 in series [1] was > 1000 mg/kg.
With `COC(=O)c1cc(C)c(C(O)c2cc(-n3ccnc3)ccc2C)c(C)c1` (stereo not drawn) [α-(2,6-dimethyl-4-methoxycarbonylphenyl)-2-methyl-5-(1-imidazolyl)benzenemethanol], the inhibition at 10 mg/kg in the series with platelet aggregation turned out to be 100%. Also, the IC50 on thromboxane synthetase is 0.7 µM; at cyclo-oxygenase it was > 100 µM; on prostacyclin synthetase, > 100 µM. The LD50 in series [1] was > 1000 mg/kg.
With `Cc1cc(C)c(C(O)c2cccc(-n3ccnc3)c2C)c(C)c1` (stereo not drawn) [α-(2,4,6-Trimethylphenyl)-2-methyl-3-(1-imidazolyl)benzenemethanol], in the series on platelet aggregation, the inhibition at 10 mg/kg is 68%. The LD50 in series [1] was > 1000 mg/kg.
For the compound `Cc1ccc(-n2ccnc2)cc1C(O)c1c(C)cc(C(=O)OC(C)C)cc1C` (stereo not drawn) [α-(2,6-dimethyl-4-isopropoxycarbonylphenyl)-2-methyl-5-(1-imidazolyl)benzenemethanol], the inhibition at 10 mg/kg in the series with platelet aggregation turned out to be 76%. For the same compound, the IC50 on cyclo-oxygenase and at prostacyclin synthetase was > 100 µM throughout. Further, in series [1], the LD50 is > 1000 mg/kg.
